{"source": "patent US20200165312A1", "about": "“COSMETIC COMPOSITION FOR IMPROVING SKIN CONDITIONS COMPRISING FUSION PROTEIN INCLUDING SKIN PENETRATION ENHANCING PEPTIDE” (LG HOUSEHOLD & HEALTH CARE LTD., priority 2017, published 2020)", "key": {"[1]": {"experiment": "Skin retentivity of growth factor fusion proteins (porcine skin disrupted, ELISA)", "assay_type": "in vitro ADME", "details": "for Remaining amount (%): skin after 16 hours penetration test", "method": "Specifically, the porcine skin remained after the experiment of Example 3-2-4 was recovered, frozen in liquid nitrogen, and disrupted. An amount of PDGFa or T-PDGFa contained therein was quantitatively analyzed using the ELISA kit (R&D Systems). In addition, a relative amount of T-PDGFa to PDGFa was calculated as a remaining amount (Table 8).\nSpecifically, the porcine skin remained after the experiment of Example 3-3-4 was recovered, frozen in liquid nitrogen, and disrupted. An amount of VEGF or T-VEGF contained therein was quantitatively analyzed using the ELISA kit (R&D Systems).\nSpecifically, the porcine skin remained after the experiment of Example 3-4-4 was recovered, frozen in liquid nitrogen, and disrupted. An amount of IGF-1 or T-IGF-1 contained therein was quantitatively analyzed using the ELISA kit (R&D Systems). In addition, a relative amount of T-IGF-1 to IGF-1 was calculated as a remaining amount (Table 17).\nSpecifically, the porcine skin remained after the experiment of Example 3-5-3 was recovered, frozen in liquid nitrogen, and disrupted. An amount of KGF or T-KGF contained therein was quantitatively analyzed using the ELISA kit (R&D Systems). In addition, a relative amount of T-KGF to KGF was calculated as a remaining amount (Table 21).\nSpecifically, the porcine skin remained after the experiment of Example 3-6-3 was recovered, frozen in liquid nitrogen, and disrupted. An amount of Tβ4 or T-Tβ4 contained therein was quantitatively analyzed using the ELISA kit (R&D Systems). In addition, a relative amount of T-Tβ4 to Tβ4 was calculated as a remaining amount (Table 25)."}, "[2]": {"system": "human umbilical vein endothelial cells", "experiment": "Endothelial cell proliferation, Cell Counter Kit-8", "assay_type": "cell-based", "details": "for Proliferation (%): 100 ng/mL T-Tβ4 or Tβ4, serum-free M199, one day, control = 100", "method": "Specifically, human umbilical vein endothelial cells were inoculated onto a 96-well plate and cultured for 24 hours to obtain cultures at a density of 5,000 cells per well. The cultures were washed with PBS and cultured in a serum-free M199 medium for 16 hours. […] The cultures were obtained therefrom and a difference between proliferated amounts of cells was quantitively analyzed using the Cell Counter Kit-8 (Dojindo).\nSpecifically, human umbilical vein endothelial cells were inoculated onto a 96-well plate and cultured for 24 hours to obtain cultures at a density of 5,000 cells per well. The cultures were washed with PBS and cultured in a serum-free M199 medium for 16 hours. The cells were washed with PBS again and cultured in a serum-free M199 medium supplemented with 100 ng/mL T-Tβ4 or Tβ4 for one day. The cultures were obtained therefrom and a difference between proliferated amounts of cells was quantitively analyzed using the Cell Counter Kit-8 (Dojindo). Here, human umbilical vein endothelial cells cultured in a serum-free M199 medium without T-Tβ4 or Tβ4 were used as a control (Table 22)."}, "[3]": {"system": "skin keratinocytes", "experiment": "Keratinocyte growth (skin barrier strengthening), Cell Counter Kit-8", "assay_type": "cell-based", "details": "100 ng/mL T-IGF-1 or IGF-1, one day; control = 100", "method": "Specifically, skin keratinocytes were cultured in a 96-well plate for one day to obtain cultures at a density of 6,000 cells per well. The cultures were washed with PBS and cultured in a serum-free DMEM medium for one day. The cells were washed with PBS again and cultured in a serum-free DMEM medium supplemented with 100 ng/mL T-IGF-1 or IGF-1 for one day. The cultures were obtained therefrom and a difference between proliferated amounts of cells was quantitively analyzed using the Cell Counter Kit-8 (Dojindo). Here, skin keratinocytes cultured in a serum-free DMEM medium without T-IGF-1 or IGF-1 were used as a control (Table 14).\nSpecifically, skin keratinocytes were cultured in a 96-well plate for 24 hours to obtain cultures at a density of 6,000 cells per well.\nThe cultures were washed with PBS and cultured in a serum-free DMEM medium for one day. The cells were washed with PBS again and cultured in a serum-free DMEM medium supplemented with 100 ng/mL T-KGF or KGF for one day. The cultures were obtained therefrom and a difference between proliferated amounts of cells was quantitively analyzed using the Cell Counter Kit-8 (Dojindo). Here, skin keratinocytes cultured in a serum-free DMEM medium without T-KGF or KGF were used as a control (Table 18)."}, "[4]": {"system": "dermal fibroblasts", "experiment": "Collagen production in dermal fibroblasts (ELISA)", "assay_type": "cell-based, human", "details": "10 ng/mL, serum-free DMEM, two days; control = 100", "method": "Specifically, dermal fibroblasts were inoculated onto a 24-well plate and cultured for 24 hours to obtain cultures having a saturation degree of 70 to 80%. The cultures were washed with PBS and cultured in a serum-free DMEM medium including 10 ng/mL T-PDGFa or PDGFa for two days. A supernatant was obtained therefrom and the amount of collagen produced and released in the culture solution was quantitively analyzed using an ELISA kit (R&D Systems) (Table 4)."}, "[5]": {"system": "dermal fibroblasts", "experiment": "Hyaluronic acid (HA) production in dermal fibroblasts (ELISA)", "assay_type": "cell-based, human", "details": "10 ng/mL T-PDGFa or PDGFa, two days; control = 100", "method": "Specifically, dermal fibroblasts were inoculated onto a 24-well plate and cultured for 24 hours to obtain cultures having a saturation degree of 70 to 80%. The cultures were washed with PBS and cultured in a serum-free DMEM medium including 10 ng/mL T-PDGFa or PDGFa for two days. A supernatant was obtained therefrom and the amount of hyaluronic acid (HA) produced and released in the culture solution was quantitively analyzed using an ELISA kit (R&D Systems) (Table 5).\nSpecifically, dermal fibroblasts were inoculated onto a 24-well plate and cultured for 24 hours to obtain cultures having a saturation degree of 70 to 80%. […] A supernatant was obtained therefrom and the amount of hyaluronic acid (HA) produced and released in the culture solution was quantitively analyzed using an ELISA kit (R&D Systems) (Table 9)."}}, "data": [{"substance": "Tβ4: thymosin beta 4 having an amino acid sequence of SEQ ID NO: 47", "values": [{"measurement": "Remaining amount (%)", "setting": "[1]; relative to Tβ4", "result": "100 ± 17", "unit": "%"}, {"measurement": "Proliferation (%)", "setting": "[2]", "result": "180 ± 8", "unit": "%"}]}, {"substance": "T-Tβ4: SEQ ID NO: 1 peptide C-terminal linked to N-terminal of Tβ4 via GG linker (NGSLNTHLAPILGGSDKPDMAEIEKFDKSKLKKTETQEKNPLPSKETIEQEKQAGES; Synthetic Fusion protein of T-T beta 4)", "values": [{"measurement": "Remaining amount (%)", "setting": "[1]; relative to Tβ4", "result": "9,600 ± 450%"}, {"measurement": "skin retentivity higher than the unfused protein", "setting": "[1]; summary of Tables 8, 13, 17, 21, 25", "result": "about 100 times"}, {"measurement": "Proliferation (%)", "setting": "[2]", "result": "165 ± 17", "unit": "%"}, {"measurement": "cell proliferation effect compared with the unfused protein", "setting": "[2]; human umbilical vein endothelial cells, 100 ng/mL", "result": "same level"}]}, {"substance": "IGF-1: insulin-like growth factor-1 having an amino acid sequence of SEQ ID NO: 41", "values": [{"measurement": "Remaining amount (%)", "setting": "[1]; relative to IGF-1", "result": "100 ± 28", "unit": "%"}, {"measurement": "Production (%) (keratinocyte growth)", "setting": "[3]", "result": "250 ± 20", "unit": "%"}]}, {"substance": "PDGFa: platelet-derived growth factor subunit a having an amino acid sequence of SEQ ID NO: 35", "values": [{"measurement": "Production (%) of collagen", "setting": "[4]", "result": "264 ± 17", "unit": "%"}, {"measurement": "Remaining amount (%)", "setting": "[1]; relative to PDGFa", "result": "100 ± 20", "unit": "%"}, {"measurement": "Production (%) of hyaluronic acid (HA)", "setting": "[5]", "result": "897 ± 30", "unit": "%"}]}]}
